The test system of the assay is F21D (DNA, G4) GGGTTAGGGTTAGGGTTAGGG
Briefly: FRET melting. To be noted: 5 mM K+, 95 mM Li+; 10 mM lithium cacodylate, pH 7.2; 0.2 µM DNA, 4 µM compound.

Our source for the ΔTm values is publication PMC10668861 (2023).

By ΔTm is commonly meant the shift of the melting midpoint relative to a reference.

As to `[Ru+2].c1ccc(-c2ccccn2)nc1.c1ccc(-c2ccccn2)nc1.c1ccc2nc3c4cccnc4c4ncccc4c3nc2c1`, the ΔTm is 14 ± 1 °C.
